In patent publication US9447136B2, “Semisynthetic derivatives of Nystatin A1” (BLIRT S.A., priority 2012, dated 2016):

Legend:
[1] = test system: Candida albicans ATCC 10231; experiment: Antifungal activity in vitro, serial dilution in RPMI 1640; assay type: cell-based; settings: Table 2A, RPMI 1640, pH 7.0; for Antifungal activity Candida albicans ATCC 10231 IC50: A531 50% of control; for Antifungal activity Candida albicans ATCC 10231 MIC: A531 at most 20% of control
Outline: (§1)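 In buffered RPMI 1640 at pH 7.0, fungi were exposed to serially diluted compound (M27-A2 standard) and turbidity was recorded at 531 nm. Values relative to control: IC50 at 50%, MIC as lowest concentration at ≤20%.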

[2] = test system: Candida glabrata DSM 11226; experiment: as above; assay type: cell-based; settings: Table 2A; RPMI 1640, pH 7.0
Outline: as §1

Candida krusei DSM 6128 = experiment: as above; assay type: cell-based; settings: Table 2A; RPMI 1640, pH 7.0
Outline: as §1

[3] = test system: Candida lusitaniae DSM 70102; experiment: as above; assay type: cell-based; settings: Table 2A; RPMI 1640, pH 7.0
Outline: as §1

[4] = test system: Candida tropicalis KKP 334; experiment: as above; assay type: cell-based; settings: Table 2A; RPMI 1640, pH 7.0
Outline: as §1

[5] = test system: Saccharomyces cerevisiae ATCC 9763; experiment: as above; assay type: cell-based; settings: Table 2A; RPMI 1640, pH 7.0; A531 at most 20% of control
Outline: as §1

Human erythrocytes = experiment: Hemotoxicity (hemolytic activity); settings: human erythrocytes; concentration causing 10% of hemolysis
Experimental: The hemotoxicity determination were carried out by the serial dilutions method, according to the procedure described earlier (Ślisz, M., et al., E., J Antibiot 57: 669-678 (2004)). Human erythrocytes were suspensed in the solution of saline to obtain a cell density of suspension 2×10^7/ml. Suitable amounts of diluted solutions of compounds were added to the cell suspension in tubes and were incubated at 37° C. for 30 minutes and then centrifuged (1700×g, 10 min, 4° C.). The concentration of hemoglobin in supernatant after centrifugation of erythrocytes suspension were determined by measuring the absorbance at wavelength λ=540 nm (A540). The maximum level of hemolysis was obtained after incubation of cells suspension in the presence of 0.1% Tritone X-100 (control sample). […] From these graphs, the EH50 values were read which are the interpolated concentrations of compound, for which the A540 value is exactly 50% of the A540 value measured for the control sample.

CCRF-CEM = experiment: Cytotoxic activity against mammalian cells in tissue culture (MTT); assay type: cell-based, human; settings: CCRF-CEM, 120 h, MTT
Experimental: (§2) For examinations were used selected cell lines: CCRF-CEM—human acute lymphoblastic leukemia; HepG2—human malignant hepatoma; LLC-PK1—epithelial cell of pig kidney; All lines were from ATCC collection.
(§3) The study are conducted using described below methods of culturing and determination of cytotoxic activity.
(§4) CCRF-CEM cells were cultured in medium RPMI 1640+10% fetal bovine serum (FBS), LLC-PK1 cells in medium Medium 199+3% FBS, HepG2 cells in medium MEM+10% FBS. All media contained 100 μg/ml of penicillin G and streptomycin. 24-wells microplates containing appropriate medium were inoculated with the cells in amount of 1.2×10^4 cells/well and allowed to stand overnight. Next, tested compounds as solution in dimethylsulfoxide (DMSO) were added in volume of 10 μl (serial 2× dilutions). To control well 10 μl of DMSO was added. Microplates with cell suspensions were incubated for 120 h at temperature 37° C. at atmosphere of 95%/5% CO2. After incubation, to all wells 200 μl of solution of 3-(4,5-dimethylthiazole-2-yl)-2,5-diphenylotetrazole bromide (MTT) in PBS (4 mg/ml) was added and plates were further incubated for 4 h at 37° C. Next, to dissolve crystals of formazane 1 ml of DMSO was added and absorption of solutions was measured at the wavelength λ=540 nm (A540), using a microplates reader (Victor^3, Perkin-Wallac). […] From these graphs IC50 values were read, that is concentration of tested compound in the presence at which A540 value is half of A540 value measured in the control sample.

HepG2 = experiment: as above; assay type: cell-based, human; settings: HepG2, 120 h, MTT
Experimental: as §2, §3, §4

LLC-PK1 = experiment: as above; assay type: cell-based, pig; settings: LLC-PK1, 120 h, MTT
Experimental: as §2, §3, §4

Structure (SMILES) | Antifungal activity Candida albicans ATCC 10231 IC50 [1] [µg/mL] | Antifungal activity Candida albicans ATCC 10231 MIC [1] [µg/mL] | Antifungal activity Candida glabrata DSM 11226 MIC [2] [µg/mL] | Antifungal activity Candida krusei DSM 6128 MIC (Candida krusei DSM 6128) [µg/mL] | Antifungal activity Candida lusitaniae DSM 70102 MIC [3] [µg/mL] | Antifungal activity Candida tropicalis KKP 334 MIC [4] [µg/mL] | Antifungal activity Saccharomyces cerevisiae ATCC 9763 MIC [5] [µg/mL] | EH10 (Human erythrocytes) [µg/mL] | Cytotoxicity IC50 CCRF-CEM (CCRF-CEM) [µg/mL] | Cytotoxicity IC50 HepG2 (HepG2) [µg/mL] | Cytotoxicity IC50 LLC-PK1 (LLC-PK1) [µg/mL]
CC1OC(O[C@H]2/C=C/C=C/C=C/C=C/CC/C=C/C=C/[C@H](C)[C@@H](O)[C@@H](C)[C@H](C)OC(=O)C[C@H](O)C[C@H](O)C[C@H](O)CC[C@@H](O)[C@H](O)CC3(O)C[C@H](O)[C@@H](C(=O)O)[C@H](C2)O3)C(O)C(NC(=S)NCCCN(C)C)C1O (stereo partly drawn) [Compound N17, N-{3-[3-(N,N-dimethylamino)propyl]thioureidyl}nystatin A1] | 2.92 | 4 | 8 | 8 | 4 | 4 | 4 | 156.33 | >100 | >100 | >100
CCN(CC)CCNC(=S)NC1C(O)C(C)OC(O[C@H]2/C=C/C=C/C=C/C=C/CC/C=C/C=C/[C@H](C)[C@@H](O)[C@@H](C)[C@H](C)OC(=O)C[C@H](O)C[C@H](O)C[C@H](O)CC[C@@H](O)[C@H](O)CC3(O)C[C@H](O)[C@@H](C(=O)O)[C@H](C2)O3)C1O (stereo partly drawn) [Compound N14, N-{3-[2-(N,N-diethylamino)ethyl]thioureidyl}nystatin A1] | 3.21 | 8 | 16 | 16 | 4 | 8 | 4 |  | >100 | >100 | >100
